Data on 21 molecules can be found in US20250145592A1 (NICO Therapeutics, Inc., priority 2022, published 2025).

The test system of this assay is IL-1β secretion in THP-1 cells (NLRP3). Description: IL-1β secretion assay in PMA-differentiated THP-1 cells stimulated with LPS and nigericin (ELISA readout). It counts as cell-based. Particulars: IL-1β ELISA. The method, then:
Compounds as provided herein were tested in the following assay. Cell culture medium employed contained RPMI 1640 medium (89%), FBS (10%), Pen/Strep (1%), and 2-mercaptoethanol (0.05 mM). Freezing medium was made up of 90% FBS and 10% DMSO. THP-1 cells were removed from the liquid nitrogen and placed into a 37° C. water bath to thaw, until signs of ice dissipated. The cells were then added to 9 mL of warm cell culture medium and centrifuged for 5 minutes at 1000 rpm. The supernatant was discarded, and the cells were resuspended in new cell culture medium. THP-1 cells were then split and cultured in the cell culture medium, being passaged every 2-3 days with the cell density will be maintained between 5×10^5 and 1.5×10^6 viable cells/mL.
To freeze, cells were resuspended with fresh freezing medium, adjusting the cell density to 5×10^6 cells/mL. The cell suspension was partitioned into 1 mL aliquots per vial, and the vials were transferred to a −80° C. freezer. After one day at −80° C., the cell vials were transferred to liquid nitrogen freezer for storage.
PMA was dissolved in DMSO to make a stock solution at 5 mg/ml and stored in 10 μl aliquots at −20° C. for single use. PMA is added to normal growth medium. LPS was diluted with 1 mL of water solution to provide a 1 mg/mL stock solution and stored in 15 μl aliquots at −20° C. for single use. Nigericin is diluted in ice cold 100% ethanol to 5 mg/ml (6.7 mM) and stored in 75 μL aliquots at −20° C. for single use. Serum-free media contains RPMI 1640 medium (99%), Pen/Strep (1%), and 2-mercaptoethanol (0.05 mM). The two control conditions used to qualify and normalize test compound dose-response curves were as follows: High Control=25 ng/mL LPS, […], 0.5% DMSO, Low Control=25 ng/mL, LPS, 0.5% DMSO.
THP-1 cells were diluted to provide a suspension at a concentration of 1.0×10^6 cells/mL with the total volume of suspension required to enable the desired number of assay plates. The growth media was supplemented with PMA (5 ng/mL final concentration) and the cells were incubated at 37° C. under a humidified atmosphere of 5% CO2 for 40 h.
All media was carefully aspirated from each culture flask. The cells were washed carefully with 1×DPBS. The cells were then briefly digested with trypsin LE for 5 minutes at 23° C. and immediately resuspended in cell growth media. After resuspension, the cells were centrifuged at 1000 rpm for 3 minutes and the supernatant was discarded. The cells were resuspended in DPBS and once again centrifuged at 1000 rpm for 5 minutes. The supernatant was discarded and the cell pellet was resuspended in serum-free media supplemented with LPS (25 ng/mL final concentration) to enable the distribution of 30K THP-1 cells within 45 μL of media into each well of 384-well PDL-coated plates. The 384-well plates were then incubated at 37° C. under a humidified atmosphere of 5% CO2 for 2 h. Following this period, test compounds were dispensed by Tecan across the desired concentration range with all wells normalized to a final 0.5% DMSO concentration. The plates were then then incubated at 37° C. under a humidified atmosphere of 5% CO2 for 1 h. Following this period, 5 μL of the 5 mg/mL nigericin stock solution was added to each of the appropriate wells and plates were centrifuged at 1000 rpm for 30 seconds. The plates were the immediately reintroduced to the incubator at 37° C. under a humidified atmosphere of 5% CO2 for 2 h. After this time, 35 μL/well of supernatant was collected and transferred into v-bottom plate and centrifuged at 1000 rpm for 1 minute. These supernatant aliquots were analyzed using an IL-Iβ detection kit as described below. If needed, the test samples could be snap frozen and stored at −80° C. until analyzed.
To prepare each ELISA plate, capture antibody (mAb Mt175) was diluted with PBS to a final concentration of […] and then 20 µL of this solution was added to each well of the ELISA plate.
Each plate was allowed to incubate overnight at 4° C. […]
For orientation: ELISA stands for enzyme-linked immunosorbent assay.

Where [1] appears, read: Homo sapiens, THP-1, Table 3, LPS 25 ng/mL + nigericin, read-out: Activity (IC50 class).
The mark [2] stands for this setting: Homo sapiens, THP-1, Table 4, LPS 25 ng/mL + nigericin, read-out: Activity (IC50).
Setting [3] is: Table 3, LPS 25 ng/mL + nigericin, read-out: Activity (IC50 class).
The mark [4] stands for this setting: Table 4, LPS 25 ng/mL + nigericin, read-out: Activity (IC50).

Where two headings read alike, the source gives them in different places.

What is called IC50 is the concentration that inhibits the measured activity by half. `O=C(Cn1nc(OC2CC3(CCC3)C2)c2cc(Br)ccc2c1=O)Nc1ncc(F)cn1` [Example 40, 2-(6-bromo-1-oxo-4-spiro[3.3]heptan-2-yloxyphthalazin-2-yl)-N-(5-fluoropyrimidin-2-yl)acetamide]: the 50% inhibitory concentration (IC50) by setting is: under setting [1], under 1000 nM; under setting [2], 17 nM.
With `C[C@@H]1CC1Oc1nn(CC(=O)Nc2ncc(F)cn2)c(=O)c2ccc(Br)cc12` (single isomer, unassigned) [Example 3, 2-[6-bromo-4-[2-trans-methylcyclopropyl]oxy-1-oxophthalazin-2-yl]-N-(5-fluoropyrimidin-2-yl)acetamide], the IC50 by setting is: under setting [3], under 1000 nM; under setting [4], 35 nM.
Regarding `Cc1cnc(NC(=O)Cn2nc(OC3CC4(C3)CC4(F)F)c3cc(Br)ccc3c2=O)nc1` (single isomer, unassigned) [Example 21, 2-[6-bromo-4-(2,2-difluorospiro[2.3]hexan-5-yl)oxy-1-oxophthalazin-2-yl]-N-(5-methylpyrimidin-2-yl)acetamide], the 50% inhibitory concentration (IC50) runs as follows: under setting [1], under 1000 nM; under setting [4], 31 nM.
Turning to `O=C(Cn1nc(OC2CC3CC[C@@H]2C3)c2cc(Br)ccc2c1=O)Nc1ncc(F)cn1` (stereo partly drawn) [Example 46, 2-[4-[[(1r,2r,4s)-2-bicyclo[2.2.1]heptanyl]oxy]-6-bromo-1-oxophthalazin-2-y1]-N-(5-fluoropyrimidin-2-yl)acetamide], the concentration for half-maximal inhibition (IC50) by setting is: under setting [1], under 1000 nM; under setting [2], 862 nM.
As to `O=C(Cn1nc(OC2CC3(C2)CC3(F)F)c2cc(C3(F)CC3)ccc2c1=O)Nc1ncc(F)cn1` (single isomer, unassigned) [Example 13, 2-[4-(2,2-difluorospiro[2.3]hexan-5-yl)oxy-6-(1-fluorocyclopropyl)-1-oxophthalazin-2-yl]-N-(5-fluoropyrimidin-2-yl)acetamide], the IC50 reads like this: under setting [1], under 1000 nM; under setting [4], 34 nM.
As to `Cc1cnc(NC(=O)Cn2nc(OC3CC4(CC4)C3)c3cc(Br)ccc3c2=O)nc1` [Example 29, 2-(6-bromo-1-oxo-4-spiro[2.3]hexan-5-yloxyphthalazin-2-yl)-N-(5-methylpyrimidin-2-yl)acetamide], the 50% inhibitory concentration (IC50) under setting [1] is under 1000 nM and the IC50 under setting [2] stood at 26 nM.
Consider `C[C@@H]1CC1Oc1nn(CC(=O)N[C@H]2C[C@@](C)(O)C2)c(=O)c2ccc(Br)cc12` (single isomer, unassigned) [Example 7, 2-[6-bromo-4-[trans-2-methylcyclopropyl]oxy-1-oxophthalazin-2-yl]-N-(cis-3-hydroxy-3-methylcyclobutyl)acetamide], for which the half-inhibitory concentration (IC50) by setting is: under setting [1], under 1000 nM; under setting [4], 84 nM.
As to `O=C(Cn1nc(OC2CC3(CC3)C2)c2c(F)c(C3CC3)ccc2c1=O)Nc1ncc(F)cn1` [Example 31, 2-(6-cyclopropyl-5-fluoro-1-oxo-4-spiro[2.3]hexan-5-yloxyphthalazin-2-yl)-N-(5-fluoropyrimidin-2-yl)acetamide], the IC50 reads like this: under setting [1], under 1000 nM; under setting [2], 66 nM.
For `Cc1cnc(NC(=O)Cn2nc(OC3C[C@H]3C)c3cc(Br)ccc3c2=O)nc1` (single isomer, unassigned) [Example 9, 2-[6-bromo-4-[trans-2-methylcyclopropyl]oxy-1-oxophthalazin-2-yl]-N-(5-methylpyrimidin-2-yl)acetamide], the IC50 was under 1000 nM under setting [1] and 554 nM under setting [4].
Regarding `COC1(C(F)(F)F)CC(Oc2nn(CC(=O)Nc3ncc(F)cn3)c(=O)c3ccc(Br)cc23)C1` (stereo not drawn) [Example 43], the IC50 by setting is: under setting [1], under 1000 nM; under setting [2], 447 nM.
Taken in the same sequence, the figures for `O=C(Cn1nc(OC2CC2)c2cc(C3CCC3)ccc2c1=O)Nc1ncc(F)cn1` [Example 39, 2-(6-cyclobutyl-4-cyclopropyloxy-1-oxophthalazin-2-yl)-N-(5-fluoropyrimidin-2-yl)acetamide] were 1000 to 10000 nM and 1120 nM.
In the case of `O=C(Cn1nc(O[C@H]2C[C@@H](F)C2)c2cc(Br)ccc2c1=O)Nc1ncc(F)cn1` [Example 44, 2-[6-bromo-4-(cis-3-fluorocyclobutyl)oxy-1-oxophthalazin-2-yl]-N-(5-fluoropyrimidin-2-yl)acetamide], the IC50 is under 1000 nM under setting [1] and 492 nM under setting [2].
Taken in the same sequence, the figures for `O=C(Cn1nc(OC2CC3(CC3)C2)c2cc(Br)ccc2c1=O)Nc1ncc(F)cn1` [Example 4, 2-(6-bromo-1-oxo-4-spiro[2.3]hexan-5-yloxyphthalazin-2-yl)-N-(5-fluoropyrimidin-2-yl)acetamide] were under 1000 nM and 33 nM.
In the case of `O=C(Cn1nc(OC2CC3(C2)CC3(F)F)c2cc(C3(F)CC3)ccc2c1=O)Nc1ncc(F)cn1` (single isomer, unassigned) [Example 14, 2-[4-(2,2-difluorospiro[2.3]hexan-5-yl)oxy-6-(1-fluorocyclopropyl)-1-oxophthalazin-2-yl]-N-(5-fluoropyrimidin-2-yl)acetamide], the IC50 runs as follows: under setting [3], under 1000 nM; under setting [4], 314 nM.
As to `CC[C@@H]1CC1Oc1nn(CC(=O)Nc2ncc(F)cn2)c(=O)c2ccc(Br)cc12` (single isomer, unassigned) [Example 35, 2-[6-bromo-4-[cis-2-ethylcyclopropyl]oxy-1-oxophthalazin-2-yl]-N-(5-fluoropyrimidin-2-yl)acetamide], the 50% inhibitory concentration (IC50) reads like this: under setting [1], under 1000 nM; under setting [2], 368 nM.
Taken in the same sequence, the figures for `CC[C@H]1C[C@@H]1Oc1nn(CC(=O)Nc2ncc(F)cn2)c(=O)c2ccc(Br)cc12` (relative stereo) [Example 51, 2-[6-bromo-4-[trans-2-ethylcyclopropyl]oxy-1-oxophthalazin-2-yl]-N-(5-fluoropyrimidin-2-yl)acetamide] were under 1000 nM and 790 nM.
Consider `C[C@@H]1CC1Oc1nn(CC(=O)N[C@H]2C[C@@](C)(O)C2)c(=O)c2ccc(Br)cc12` (single isomer, unassigned) [Example 8, 2-[6-bromo-4-[trans-2-methylcyclopropyl]oxy-1-oxophthalazin-2-yl]-N-(cis-3-hydroxy-3-methylcyclobutyl)acetamide], for which the concentration for half-maximal inhibition (IC50) runs as follows: under setting [3], under 1000 nM; under setting [4], 728 nM.
Consider `O=C(Cn1nc(OCCF)c2cc(Br)ccc2c1=O)Nc1ncc(F)cn1` [Example 47, 2-[6-bromo-4-(2-fluoroethoxy)-1-oxophthalazin-2-yl]-N-(5-fluoropyrimidin-2-yl)acetamide], for which the IC50 runs as follows: under setting [1], 1000 to 10000 nM; under setting [2], 1400 nM.
Consider `O=C(Cn1nc(O[C@H]2C[C@H](F)C2)c2cc(Br)ccc2c1=O)Nc1ncc(F)cn1` [Example 45, 2-[6-bromo-4-(trans-3-fluorocyclobutyl)oxy-1-oxophthalazin-2-yl]-N-(5-fluoropyrimidin-2-yl)acetamide], for which the concentration for half-maximal inhibition (IC50) reads like this: under setting [1], under 1000 nM; under setting [2], 912 nM.
As for `O=C(Cn1nc(OC2CC2)c2cc(Cl)ccc2c1=O)Nc1ncc(F)cn1` [Example 34, 2-(6-chloro-4-cyclopropyloxy-1-oxophthalazin-2-yl)-N-(5-fluoropyrimidin-2-yl)acetamide], the concentration for half-maximal inhibition (IC50) was under 1000 nM under setting [1] and 408 nM under setting [2].
With `O=C(Cn1nc(OCC(F)F)c2cc(Br)ccc2c1=O)Nc1ncc(F)cn1` [Example 48, 2-[6-bromo-4-(2,2-difluoroethoxy)-1-oxophthalazin-2-yl]-N-(5-fluoropyrimidin-2-yl)acetamide], the half-maximal inhibitory concentration (IC50) under setting [1] is under 1000 nM and the 50% inhibitory concentration (IC50) under setting [2] was 568 nM.
